Test results: PubChem BioAssay (NCI)
“And” between values parts separate entries of the source, which are not always exact repeats. Equal values may be shown once.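 A five-concentration, 48-hour dose response in 96-well plates underlies each endpoint, interpolated linearly between surrounding concentrations. GI50: concentration for 50% inhibition of growth. TGI is the concentration that stops growth completely.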

How the values were obtained:
Experiment in all cases: DTP human tumour cell line panel, 48 h
A498 renal = system: A498 renal
DU-145 prostate = system: DU-145 prostate
HOP-92 NSCLC = system: HOP-92 NSCLC
HS 578T breast = system: HS 578T breast
HT29 colon = system: HT29 colon
IGROV1 ovarian = system: IGROV1 ovarian
KM12 colon = system: KM12 colon
M14 melanoma = system: M14 melanoma
OVCAR-8 ovarian = system: OVCAR-8 ovarian
RPMI-8226 leukemia = system: RPMI-8226 leukemia
SK-MEL-2 melanoma = system: SK-MEL-2 melanoma
SR leukemia = system: SR leukemia
MDA-MB-231 breast = system: MDA-MB-231 breast
NCI/ADR-RES ovarian = system: NCI/ADR-RES ovarian
T-47D breast = system: T-47D breast

Compound	TGI (A498 renal)	TGI (DU-145 prostate)	TGI (HOP-92 NSCLC)	TGI (HS 578T breast) [µM]	TGI (HT29 colon) [µM]	TGI (IGROV1 ovarian) [µM]	TGI (KM12 colon)	TGI (M14 melanoma) [µM]	TGI (OVCAR-8 ovarian) [µM]	TGI (RPMI-8226 leukemia) [µM]	TGI (SK-MEL-2 melanoma)	TGI (SR leukemia) [µM]	TGI (MDA-MB-231 breast)	TGI (NCI/ADR-RES ovarian) [µM]	TGI (T-47D breast) [µM]	GI50 (IGROV1 ovarian)	GI50 (KM12 colon)	GI50 (MDA-MB-231 breast)	GI50 (OVCAR-8 ovarian)	GI50 (SK-MEL-2 melanoma)
CC[C@H]1C=CCC[C@@]2(C[C@@H]3CC[C@H]4[C@@H](C(=O)OCCCCCCCCCCCCCCCC(=O)N(CCCNC(C)=O)C[C@H](CCNC(C)=O)OC(C)=O)[C@@]5(CCC[C@@H](C)O5)NC(=[N+]34)N2)O1	3.27 µM	2.9 µM	2.43 µM	4.83	2.7	2.66	2.67 µM	3.24	2.9	0.554	3.31 µM	3.35								
COC1=CC(=O)c2c(n[nH]c2CCNC(=O)OCc2ccccc2)C1=O	32.7 µM			69.1	40.8	29	22.9 µM	26.7	44.3	39.1	23.7 µM	65.5	31.3 µM	> 100	18.3					
CC(C)(C)OC(=O)NC(Cc1ccc(OCc2ccccc2)cn1)C(=O)O (stereo unspecified)	> 100 µM	> 100 µM	> 100 µM	> 100	> 100	> 100	> 100 µM		> 100	> 100		> 100	> 100 µM	> 100						
COc1ccc2cc(/C=N\NC(=O)Nc3ccc([N+](=O)[O-])cc3)ccc2c1		14 µM	32.4 µM	> 31.6	16.1	23.2	24.5 µM	> 71.4	16.9	29.1	20.5 µM		19.1 µM	20.1	19.5					
Cn1nc(S(N)(=O)=O)s/c1=N/S(=O)(=O)c1ccc(N)cc1	> 100 µM	> 100 µM	> 100 µM		> 100		> 100 µM	> 100	> 100	> 100	> 100 µM		> 100 µM	> 100						
O=C(/C=N/O)Nc1ccc(Cl)c(I)c1					> 100	39.2	68.3 µM	43.7	> 100	77.8	31.3 µM	61.2								
Cc1ccc(/C=C2\CCCCCC2=O)cc1	> 100 µM	> 100 µM	> 100 µM	> 100	> 100	> 100	> 100 µM	> 100		> 100	> 100 µM	> 100	> 100 µM		> 100					
CN1C(=O)C(C#N)C2C[C@@]1(C)Oc1ccccc12 (stereo partly specified)	> 100 µM	> 100 µM	> 100 µM	> 100	> 100	> 100	> 100 µM	> 100	> 100	> 100	> 100 µM		> 100 µM	> 100						
CC(CC(C)[C@H]1CCC2[C@H]3C(CC(=O)[C@@]21C)[C@@]1(C)CCC(O)C[C@H]1C[C@@H]3O)C(=O)O (stereo partly specified)	> 100 µM	> 100 µM	> 100 µM		> 100	> 100	> 100 µM	> 100	> 100	> 100	> 100 µM	> 100	> 100 µM	> 100	> 100					
Cc1cc(C)nc(NS(=O)(=O)c2ccc(Nc3nnc(/C=C/c4c(O)ccc5ccccc45)c(=O)n3N)cc2)n1		> 100 µM	> 100 µM	> 100	> 100	> 100		58.5	87.2	> 100		55.6		58.3	51.5					
O=C(NN1C(=O)C(Cl)C1c1cccc(Cl)c1)c1ccccc1O (stereo unspecified)	> 100 µM				> 100	> 100	> 100 µM	> 100	> 100		> 100 µM									
Brc1ccc(N=Nc2ccc3ccccc3n2)cc1		> 100 µM	> 100 µM	56.6	> 100	65.5	> 100 µM	> 100	> 100	> 100	> 100 µM			> 100	> 100					
C=CCN1C(=O)/C(=C/c2ccc(OC)cc2)N=C1SC1OC(COC(C)=O)C(OC(C)=O)C(OC(C)=O)C1OC(C)=O (stereo unspecified)	> 100 µM and 86.2 µM	39.2 µM and > 100 µM	46.4 µM and 59.4 µM		22.4	> 100	62.5 µM and > 100 µM	> 100	> 100	> 100	54.8 µM and > 100 µM	> 100	42.9 µM and > 100 µM	> 100	67.5	20.4 µM and 75.4 µM	21.4 µM and > 100 µM	18.8 µM and 39.2 µM	13.1 µM and 54.1 µM	21.1 µM and 51.7 µM
CC1CN=C(NS(=O)(=O)c2cc(C(=O)Nc3ccccc3)c(Cl)cc2S)NN1 (stereo unspecified)	57.4 µM	> 100 µM			> 100	83.3	> 100 µM	> 100	> 100	> 100	71.6 µM	> 100	> 100 µM	> 100						
O=[N+]([O-])c1cc(Cl)ccc1S(=O)(=O)c1ccc(Cl)cc1[N+](=O)[O-]			32.6 µM		30.9	29.4	27.7 µM	30.4	29.5	> 100	33 µM	40.3								
C/C(=C(/C)c1cc[n+](C)cc1)c1cc[n+](C)cc1	> 75 µM		> 75 µM		> 75	> 75	> 75 µM	> 75	> 75	> 75	> 75 µM									
O=c1[nH]cc(COCC(O)CO)c(=O)[nH]1 (stereo unspecified)	> 100 µM		> 100 µM		> 100	> 100	> 100 µM	> 100	> 100	> 100	> 100 µM									
C=C(C)CCN(C(=O)OC(C)(C)C)c1cc(C(C)C)co1	> 100 µM	> 100 µM	61 µM		> 100	> 100	> 100 µM	> 100	> 100	57.3	> 100 µM	> 100	> 100 µM	> 100	> 100					
